Data from publication PMC3889502, “Inhibitory effects of monoterpenes on human TRPA1 and the structural basis of their activity” (The Journal of Physiological Sciences : JPS, 2013).
“Also recorded” adds a separate entry of the source. Values belong to the compound of their own block, whether it stands above or below them.

Columns and labels:
[1] = target: T1, hTRPA1 (Homo sapiens, UniProt O75762); test: Whole-cell patch-clamp: inhibition of agonist-induced hTRPA1 current; type: cell-based; conditions: for Comparison of inhibitory effects on hTRPA1 activity between optical isomers of borneol: AITC 20 μM-induced current (ESM Fig. 2); for IC50 / Inhibition of AITC-induced hTRPA1 current: AITC 20 μM; for IC50: patch-clamp, mean ± SEM, n = 5-10, Hill fit; for IC50 / Inhibition of AITC-induced hTRPA1 current / Inhibition of FFA-activated hTRPA1-mediated current / Inhibition of menthol-activated hTRPA1-mediated current: no extracellular Ca2+; for Inhibition of AITC-induced hTRPA1 current / Inhibition of FFA-activated hTRPA1-mediated current / Inhibition of menthol-activated hTRPA1-mediated current: test compound 1 mM, -60 mV; for Inhibition of FFA-activated hTRPA1-mediated current: FFA 100 μM; for Inhibition of menthol-activated hTRPA1-mediated current: menthol 1 mM
T1 construct: Full-length hTRPA1 was obtained from Life Technologies (Carlsbad, CA); host or cells: HEK293T
Experimental: (§1) Human embryonic kidney (HEK) 293T cells were maintained in DMEM (WAKO Pure Chemical Industries Ltd.) supplemented with 10 % fetal bovine serum (Biowest SAS, Caille, France), 100 U/mL penicillin (Life Technologies), 100 μg/mL streptomycin (Life Technologies), and 2 mM L-glutamine (GlutaMAX; Life Technologies) at 37 °C in 5 % CO2. For Ca^2+-imaging, 1 μg of plasmid DNA containing hTRPA1 in pcDNA3 in OPTI-MEM medium (Life Technologies) was transfected into HEK293T cells using Lipofectamine Plus Reagent (Life Technologies). Following incubation for 3–4 h, cells were reseeded on coverslips and incubated further at 37 °C in 5 % CO2.
(§2) Whole-cell patch-clamp recordings were performed 1 day after transfection. The standard bath solution was the same as that used in the Ca^2+-imaging experiments, and extracellular Ca^2+ was removed and 5 mM EGTA added for the recording of AITC-, menthol- and FFA-induced current responses. The pipette solution contained 140 mM KCl, 5 mM EGTA, and 10 mM HEPES, pH 7.4 (adjusted with KOH). Data from the whole-cell voltage-clamp recordings were sampled at 10 kHz and filtered at 5 kHz for analysis (Axon 200B amplifier with pCLAMP software; Axon Instruments, Sunnyvale, CA). The membrane potential was clamped at −60 mV for all conditions. In some experiments, voltage ramp-pulses from −100 to +100 mV (500 ms) were applied every 5 s. All experiments were performed at room temperature.
(§3) Data in all of the figures are shown as the mean ± standard error of the mean, and P values of <0.05 were considered to be significant. […] Dose-dependent curves were fit with a Hill equation.
The current response was measured in the absence of extracellular Ca^2+ to minimize desensitization. […] The dose-dependency of the inhibitory effects of the three compounds on hTRPA1 was then examined using the patch-clamp method. […] Commercially available borneol contains both optical isomers.

[2] = target: T1, hTRPA1; conditions: cited from earlier work
[3] = target: T2, hTRPA1-S873V/T874L (Homo sapiens, UniProt O75762, S873V/T874L); test: Whole-cell patch-clamp: inhibition of AITC-activated current in the mutant channel; type: cell-based; conditions: borneol 0.03, 0.3, 1 mM; camphor 0.03, 0.3, 3 mM; 1,8-cineole 1, 5, 10 mM; -60 mV; no extracellular Ca2+
T2 construct: Full-length hTRPA1 was obtained from Life Technologies (Carlsbad, CA); expressed in transfected cells; host or cells: HEK293T
Experimental: as §2, §3
(§4) To test this hypothesis, we investigated whether the serine and threonine residues are involved in the inhibitory effect of borneol. […] We searched for an involvement of other amino acids in borneol activity.

[4] = target: T3, hTRPA1-Y812A (Homo sapiens, UniProt O75762, Y812A); test: as above; type: cell-based; conditions: borneol 0.03, 0.3, 1 mM; camphor 0.03, 0.3, 3 mM; 1,8-cineole 1, 5, 10 mM; -60 mV; no extracellular Ca2+
T3 construct: Full-length hTRPA1 was obtained from Life Technologies (Carlsbad, CA); expressed in transfected cells; host or cells: HEK293T
Experimental: as §2, §3, §4

[5] = target: T1, hTRPA1; test: Ca2+-imaging (fura-2): inhibition of menthol-induced cytosolic Ca2+ increase; type: cell-based; conditions: menthol 1 mM; test compound 1 mM; HEK293T cells expressing hTRPA1
Experimental: (§5) For Ca^2+-imaging, 1 μg of plasmid DNA containing hTRPA1 in pcDNA3 in OPTI-MEM medium (Life Technologies) was transfected into HEK293T cells using Lipofectamine Plus Reagent (Life Technologies). Following incubation for 3–4 h, cells were reseeded on coverslips and incubated further at 37 °C in 5 % CO2.
(§6) Ca^2+-imaging was performed 1 day after transfection. […] Cytosolic-free Ca^2+ concentrations in HEK293T cells were measured by dual-wavelength fura-2 (Molecular Probes, Invitrogen Corp.) microfluorometry with excitation at 340/380 nm and emission at 510 nm. The fura-2 ratio image was calculated and acquired using the IP-Lab imaging processing system (Scanalytics Inc, Fairfax, VA). Ionomycin was used to confirm cell viability in the vector-transfected cells.
Data are presented as the mean ± SEM (n = 47–79)

[6] = system: vector-transfected HEK293T cells; test: Ca2+-imaging in vector-transfected cells (control); type: cell-based, human; conditions: with or without menthol; cells responded normally to ionomycin 5 μM
Experimental: (§7) Ca^2+-imaging was performed 1 day after transfection. HEK293T cells on coverslips were mounted in an open chamber and superfused with a standard bath solution (140 mM NaCl, 5 mM KCl, 2 mM MgCl2, 2 mM CaCl2, 10 mM HEPES, and 10 mM glucose, pH 7.4). Cytosolic-free Ca^2+ concentrations in HEK293T cells were measured by dual-wavelength fura-2 (Molecular Probes, Invitrogen Corp.) microfluorometry with excitation at 340/380 nm and emission at 510 nm. The fura-2 ratio image was calculated and acquired using the IP-Lab imaging processing system (Scanalytics Inc, Fairfax, VA). Ionomycin was used to confirm cell viability in the vector-transfected cells.
Washing-out of the three compounds after menthol exposure led to small increases in the fura-2 ratio, which could be due to the loss of inhibition and resumption of hTRPA1 activity from residual menthol in the cell.
Supplementary file 12576_2013_289_MOESM1_ESM.jpg: Supplementary material 1 (JPEG 324 kb) Supplementary Figure 1. […] (n = 48-75)

[7] = target: T1, hTRPA1; test: Whole-cell patch-clamp: activation of hTRPA1 current by test compounds; type: cell-based; conditions: HEK293T cells expressing hTRPA1
Experimental: as §1, §2
In order to confirm the effects of the above compounds, we performed patch-clamp experiments with HEK293T cells expressing hTRPA1.
Cells were held at −60 mV and ramp-pulses from −100 to +100 mV (500 ms) were administered every 5 s

[8] = target: T1, hTRPA1; test: Ca2+-imaging (fura-2): activation by test compounds, normalized to menthol; type: cell-based; conditions: test compound 1 mM; HEK293T cells expressing hTRPA1
Experimental: as §5, §6
In these experiments, changes in the fura-2 ratio (corresponding to cytosolic Ca^2+ concentrations) induced by the test compounds and menthol were compared because menthol, which activates hTRPA1, and the test compounds are members of the monoterpene family.
Data are presented as the mean ± standard error of the mean (SEM) (n = 27–67)

[9] = system: mTRPA1; conditions: camphor 1 mM; current increased upon washing-out; cited from earlier work
[10] = target: T4, hTRPA1 Y812A mutant (Homo sapiens, UniProt O75762, Y812A); test: Ca2+-imaging screen of tyrosine mutants in TM2 and TM3 of hTRPA1; type: cell-based; conditions: data not shown
T4 construct: Full-length hTRPA1 was obtained from Life Technologies (Carlsbad, CA); expressed in transfected cells; host or cells: HEK293T
Experimental: as §7
A mouse TRPA1 mutant in which serine and threonine residues located in the predicted inner side of TM5 were replaced with valine and leucine (S876V/T877L), respectively, was neither activated nor inhibited by menthol. […] To test this hypothesis, we investigated whether the serine and threonine residues are involved in the inhibitory effect of borneol. […] We searched for an involvement of other amino acids in borneol activity.

[11] = test compound 1 mM, held at -60 mV, ramp-pulses -100 to +100 mV

T1 sequence (O75762 whole entry): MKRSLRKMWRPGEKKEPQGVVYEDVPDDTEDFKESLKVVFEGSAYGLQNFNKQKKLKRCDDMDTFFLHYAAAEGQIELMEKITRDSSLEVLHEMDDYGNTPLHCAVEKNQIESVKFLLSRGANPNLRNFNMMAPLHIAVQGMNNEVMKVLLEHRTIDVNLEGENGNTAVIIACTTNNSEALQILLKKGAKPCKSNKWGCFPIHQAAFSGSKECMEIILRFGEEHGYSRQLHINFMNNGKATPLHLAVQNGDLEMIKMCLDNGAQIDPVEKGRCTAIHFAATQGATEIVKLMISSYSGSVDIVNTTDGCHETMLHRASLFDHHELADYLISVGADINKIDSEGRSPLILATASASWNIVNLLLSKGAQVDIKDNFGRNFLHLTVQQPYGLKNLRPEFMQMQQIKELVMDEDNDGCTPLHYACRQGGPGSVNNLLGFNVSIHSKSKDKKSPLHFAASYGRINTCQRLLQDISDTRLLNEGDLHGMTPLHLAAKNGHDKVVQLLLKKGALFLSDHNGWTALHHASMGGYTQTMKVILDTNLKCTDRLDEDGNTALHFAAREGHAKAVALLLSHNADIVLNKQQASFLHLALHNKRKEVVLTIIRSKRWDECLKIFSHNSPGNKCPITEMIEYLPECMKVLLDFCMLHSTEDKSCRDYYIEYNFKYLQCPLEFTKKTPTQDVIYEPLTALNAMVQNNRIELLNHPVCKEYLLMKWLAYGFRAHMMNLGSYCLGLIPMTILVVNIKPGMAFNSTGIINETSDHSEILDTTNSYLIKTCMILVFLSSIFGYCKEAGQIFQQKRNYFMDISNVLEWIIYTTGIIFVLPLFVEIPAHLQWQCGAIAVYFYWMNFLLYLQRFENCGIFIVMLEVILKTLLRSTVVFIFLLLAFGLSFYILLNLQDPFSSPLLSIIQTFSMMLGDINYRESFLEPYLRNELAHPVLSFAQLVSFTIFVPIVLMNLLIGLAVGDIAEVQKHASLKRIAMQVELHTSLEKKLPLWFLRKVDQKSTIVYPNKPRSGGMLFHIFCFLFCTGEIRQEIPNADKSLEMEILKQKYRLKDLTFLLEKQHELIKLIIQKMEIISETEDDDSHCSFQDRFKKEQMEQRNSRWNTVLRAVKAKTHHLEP
T2 sequence (O75762 whole entry S873V/T874L): as the sequence (O75762 whole entry) above, with S873V, T874L counted along it
T3 sequence (O75762 whole entry Y812A): as the sequence (O75762 whole entry) above, with Y812A counted along it
T4 sequence (O75762 whole entry Y812A): as the sequence (O75762 whole entry) above, with Y812A counted along it

Compound: CC1(C)[C@@H]2CC[C@@]1(C)[C@@H](O)C2 [(+)-borneol]
Comparison of inhibitory effects on hTRPA1 activity between optical isomers of borneol [1]: no difference in the inhibitory effects

Compound: CC1(C)[C@@H]2CC[C@@]1(C)[C@](C)(O)C2 [2-Methylisoborneol]
IC50 [1]: 120 ± 30 µM
Inhibition of AITC-induced hTRPA1 current [1]: completely inhibited
Inhibition of FFA-activated hTRPA1-mediated current [1]: completely inhibited
Inhibition of menthol-activated hTRPA1-mediated current [1]: completely inhibited
Inhibition of the menthol-induced increase in fura-2 ratio [5]: almost completely blocked
Effect on fura-2 ratio in vector-transfected cells [6]: did not provide any effect; also recorded: No changes in the fura-2 ratio
Activation of whole-cell hTRPA1 current [7, 11]: did not activate hTRPA1
Change in fura-2 ratio (340/380 nm) by test compound, normalized to the change by 1 mM menthol [8]: small changes in the fura-2 ratio

Compound: CC(C)C12CCC(C)(CC1)O2 [1,4-cineole]
Effect on hTRPA1 (activation or inhibition) [2]: activate hTRPA1

Compound: CC12CCC(CC1=O)C2(C)C (centres unmarked) [Camphor]
Effect on hTRPA1 (activation or inhibition) [2]: inhibit hTRPA1
Inhibition of AITC-induced hTRPA1 current [1]: partially inhibited
Effect on mTRPA1-mediated basal current [9]: inhibition of mTRPA1-mediated basal current
Inhibitory effect on AITC-activated current of hTRPA1-S873V/T874L compared with hTRPA1-WT [3]: no significant changes
Inhibitory effect on AITC-activated current of hTRPA1-Y812A compared with hTRPA1-WT [4]: such differences between WT hTRPA1 and hTRPA1-Y812A were not observed

Compound: O=C1CC2CC[C@H]1C2 [Norcamphor]
Inhibition of the menthol-induced increase in fura-2 ratio [5]: did not inhibit
Effect on fura-2 ratio in vector-transfected cells [6]: did not provide any effect; also recorded: No changes in the fura-2 ratio
Activation of whole-cell hTRPA1 current [7, 11]: did not activate hTRPA1
Change in fura-2 ratio (340/380 nm) by test compound, normalized to the change by 1 mM menthol [8]: small changes in the fura-2 ratio

Compound: CC1CCC(C(C)C)C(O)C1 (centres unmarked) [menthol]
Effect on hTRPA1 (activation or inhibition) [2]: activate hTRPA1

Compound: C=CCN=C=S [AITC, allyl isothiocyanate, reference compound]
Activation of whole-cell hTRPA1 current ([7]; AITC 20 μM): robust current activation with outward rectification

The next lines start with results.

Inhibitory effect on AITC-activated current of hTRPA1-S873V/T874L compared with hTRPA1-WT [3]: no significant changes
Compound: CC12CCC(CC1)C(C)(C)O2 [1,8-Cineole]
Effect on hTRPA1 (activation or inhibition) [2]: inhibit hTRPA1
Inhibitory effect on AITC-activated current of hTRPA1-Y812A compared with hTRPA1-WT [4]: such differences between WT hTRPA1 and hTRPA1-Y812A were not observed

Change in fura-2 ratio (340/380 nm) by test compound, normalized to the change by 1 mM menthol [8]: activated hTRPA1
Compound: CC12CCC(C1)C(C)(C)C2=O (single isomer, unassigned; (-)) [(−)-Fenchone]

IC50 [1]: 200 ± 60 µM
Inhibition of AITC-induced hTRPA1 current [1]: completely inhibited
Inhibition of FFA-activated hTRPA1-mediated current [1]: completely inhibited
Inhibition of menthol-activated hTRPA1-mediated current [1]: completely inhibited
Inhibition of the menthol-induced increase in fura-2 ratio [5]: almost completely blocked
Activation of whole-cell hTRPA1 current [7, 11]: did not activate hTRPA1
Effect of borneol on the Y812A mutant in Ca2+-imaging [10]: reduced
Change in fura-2 ratio (340/380 nm) by test compound, normalized to the change by 1 mM menthol [8]: small changes in the fura-2 ratio
Inhibitory effect on AITC-activated current of hTRPA1-S873V/T874L compared with hTRPA1-WT [3]: significantly lower
Inhibitory effect on AITC-activated current of hTRPA1-Y812A compared with hTRPA1-WT [4]: significantly lower inhibitory effect
Compound: CC1(C)C2CCC1(C)C(O)C2 (centres unmarked) [Borneol]
Effect on fura-2 ratio in vector-transfected cells [6]: did not provide any effect; also recorded: No changes in the fura-2 ratio

Comparison of inhibitory effects on hTRPA1 activity between optical isomers of borneol [1]: no difference in the inhibitory effects
Compound: CC1(C)[C@H]2CC[C@]1(C)[C@H](O)C2 [(−)-borneol]

Inhibition of AITC-induced hTRPA1 current [1]: completely inhibited
Inhibition of FFA-activated hTRPA1-mediated current [1]: completely inhibited
Inhibition of menthol-activated hTRPA1-mediated current [1]: completely inhibited
Activation of whole-cell hTRPA1 current [7, 11]: did not activate hTRPA1
Compound: CC12CCC(C1)C(C)(C)C2O (centres unmarked) [Fenchyl alcohol]
